Drawing on patent US20240150303A1, “DIAMINOTRIAZINE COMPOUNDS” (BASF SE, priority 2021, published 2024), this text covers herbicidal activity for 12 compounds.

Test in all cases: greenhouse pre-emergence herbicidal test
Holding throughout (format): in vivo

For one experiment, the system named is Amaranthus retroflexus. The source says:
(§1) The seeds of the test plants were sown separately for each species. For the pre-emergence treatment, the active ingredients, which had been suspended or emulsified in water, were applied directly after sowing by means of finely distributing nozzles. The containers were irrigated gently to promote germination and growth and subsequently covered with transparent plastic hoods until the plants had rooted. This cover caused uniform germination of the test plants, unless this had been impaired by the active ingredients. […] The test period extended over 2 to 4 weeks. During this time, the plants were tended, and their response to the individual treatments was evaluated. Evaluation was carried out using a scale from 0 to 100. 100 means no emergence of the plants, or complete destruction of at least the aerial moieties, and 0 means no damage, or normal course of growth. A moderate herbicidal activity is given at values of at least 60, a good herbicidal activity is given at values of at least 70, and a very good herbicidal activity is given at values of at least 85. The plants used in the greenhouse experiments were of the following species: [table]

Another experiment relates to Echinocloa crus-galli.
Source text: as §1

A further experiment deals with Setaria faberi.
Source text: as §1

For a further experiment, the system named is Abutilon theophrasti. An excerpt: The culture containers used were plastic flowerpots containing loamy sand with approximately 3.0% of humus as the substrate. The seeds of the test plants were sown separately for each species.
For the pre-emergence treatment, the active ingredients, which had been suspended or emulsified in water, were applied directly after sowing by means of finely distributing nozzles.
The containers were irrigated gently to promote germination and growth and subsequently covered with transparent plastic hoods until the plants had rooted. This cover caused uniform germination of the test plants, unless this had been impaired by the active ingredients.
Depending on the species, the plants were kept at 10-25° C. or 20-35° C., respectively.
The test period extended over 2 to 4 weeks. During this time, the plants were tended, and their response to the individual treatments was evaluated.
Evaluation was carried out using a scale from 0 to 100. 100 means no emergence of the plants, or complete destruction of at least the aerial moieties, and 0 means no damage, or normal course of growth. A moderate herbicidal activity is given at values of at least 60, a good herbicidal activity is given at values of at least 70, and a very good herbicidal activity is given at values of at least 85.
The plants used in the greenhouse experiments were of the following species: […]

For `CC#CCOc1c(F)ccc(Cl)c1Nc1nc(N)nc(C(C)(C)F)n1` [Example 51], the herbicidal activity in the experiment on Amaranthus retroflexus (62 g/ha), with Echinocloa crus-galli (62 g/ha), in the experiment on Setaria faberi (62 g/ha) and in the experiment on Abutilon theophrasti (62 g/ha) was 100% in each case.
Take `COc1c(Br)cc(F)c(Cl)c1Nc1nc(N)nc(C2(F)CCCC2)n1` [Example 40]: the herbicidal activity with Amaranthus retroflexus (62.5 g/ha), in the experiment on Echinocloa crus-galli (62 g/ha), in the experiment with Echinocloa crus-galli (62.5 g/ha), in the experiment with Setaria faberi (62 g/ha), with Setaria faberi (62.5 g/ha) and in the experiment with Abutilon theophrasti (62 g/ha) was 100% throughout.
Regarding `COc1c(Cl)cc(F)c(C)c1Nc1nc(N)nc(C(C)(F)F)n1` [Example 67], the herbicidal activity in the experiment on Amaranthus retroflexus (62 g/ha), in the experiment with Echinocloa crus-galli (62 g/ha), in the experiment on Setaria faberi (62 g/ha) and in the experiment with Abutilon theophrasti (62 g/ha) was 100% throughout.
Consider `COc1c(Br)cc(Cl)c(C)c1Nc1nc(N)nc(C(C)(C)F)n1` [Example 39], for which the herbicidal activity in the experiment with Amaranthus retroflexus (62 g/ha), in the experiment on Amaranthus retroflexus (62.5 g/ha), in the experiment on Echinocloa crus-galli (62.5 g/ha), with Setaria faberi (62 g/ha), in the experiment on Setaria faberi (62.5 g/ha) and with Abutilon theophrasti (62 g/ha) was 100% throughout.
As to `COc1c(Cl)ccc(Cl)c1Nc1nc(N)nc(C(C)F)n1` (stereo not drawn) [Example 71], the herbicidal activity with Amaranthus retroflexus (62 g/ha), in the experiment on Echinocloa crus-galli (62 g/ha), with Setaria faberi (62 g/ha) and in the experiment with Abutilon theophrasti (62 g/ha) was 100% in each case.
Regarding `CC#CCOc1c(F)cc(C)c(Cl)c1Nc1nc(N)nc(C(C)(C)F)n1` [Example 57], the herbicidal activity was 100% in the experiment on Amaranthus retroflexus (62 g/ha); 100% in the experiment on Echinocloa crus-galli (31 g/ha); 100% in the experiment on Echinocloa crus-galli (62 g/ha); 100% in the experiment with Setaria faberi (31 g/ha); 100% in the experiment with Setaria faberi (62 g/ha); 98% in the experiment with Abutilon theophrasti (31 g/ha).
For the compound `COc1c(F)cc(F)c(Cl)c1Nc1nc(N)nc(C(C)(C)F)n1` [Example 9], the herbicidal activity with Amaranthus retroflexus (32 g/ha) was determined as 100%; in the experiment with Amaranthus retroflexus (250 g/ha) it was 100%; in the experiment on Echinocloa crus-galli (32 g/ha), 100%; in the experiment with Setaria faberi (250 g/ha) it was 95%; in the experiment with Abutilon theophrasti (32 g/ha), 100%; with Abutilon theophrasti (250 g/ha), 90%.
Consider `COc1c(Cl)cc(F)c(C)c1Nc1nc(N)nc(C(C)F)n1` (stereo not drawn) [Example 69], for which the herbicidal activity in the experiment with Amaranthus retroflexus (62 g/ha), in the experiment with Echinocloa crus-galli (62 g/ha), with Setaria faberi (62 g/ha) and with Abutilon theophrasti (62 g/ha) was 100% each time.
As to `COc1c(Cl)cc(F)c(C)c1Nc1nc(N)nc(C(C)(C)F)n1` [Example 70], the herbicidal activity in the experiment on Amaranthus retroflexus (62 g/ha), in the experiment on Echinocloa crus-galli (62 g/ha), in the experiment with Setaria faberi (62 g/ha) and with Abutilon theophrasti (62 g/ha) was 100% each time.
On to `COc1c(Br)cc(Br)c(C)c1Nc1nc(N)nc(C(C)(C)F)n1` [Example 38], for which the herbicidal activity in the experiment on Amaranthus retroflexus (62.5 g/ha), with Amaranthus retroflexus (250 g/ha), in the experiment on Echinocloa crus-galli (62.5 g/ha), with Setaria faberi (62.5 g/ha), with Setaria faberi (250 g/ha) and in the experiment with Abutilon theophrasti (250 g/ha) was 100% each time.
In the case of `C#CCOc1c(F)ccc(Cl)c1Nc1nc(N)nc(C(C)(C)F)n1` [Example 50], the herbicidal activity is given as 100% in the experiment on Amaranthus retroflexus (31 g/ha); 100% with Amaranthus retroflexus (62 g/ha); 100% with Echinocloa crus-galli (62 g/ha); 100% in the experiment with Setaria faberi (31 g/ha); 80% in the experiment with Abutilon theophrasti (31 g/ha); 100% in the experiment on Abutilon theophrasti (62 g/ha).
For `COc1c(Cl)cc(F)c(C)c1Nc1nc(N)nc(C(C)(F)CCl)n1` (stereo not drawn) [Example 68], the herbicidal activity in the experiment with Amaranthus retroflexus (62 g/ha), in the experiment on Echinocloa crus-galli (62 g/ha), in the experiment with Setaria faberi (62 g/ha) and with Abutilon theophrasti (62 g/ha) was 100% each time.
